Measurements: patent US7799748B2, “Method of selecting benefit agents/oils suitable for reducing surfactant damage” (Conopco, Inc., priority 2005, dated 2010)

Experiments:
[1] = target: BSA protein (Bos taurus, UniProt P02769); experiment: Micro-DSC for protein denaturation; set-up: species or system Bovine; details: denaturation enthalpy approaching zero, FIG. 5
Protocol: 1.2% of BSA acetate buffer solution was prepared (pH 5.2, IS 0.02). […] Then the BSA acetate solution was titrated with either oil, or surfactant, or oil/surfactant at 1:1 ratio. After each titration, a DSC measurement was performed.

[2] = target: BSA (Bovine Serum Albumin) (Bos taurus, UniProt P02769); experiment: Conductivity test: surfactant binding to BSA protein; details: 10% SDS with 10% oil (1:1) or 10% SDS alone; 0.5% BSA in 0.02M acetate buffer pH~5.2, room temperature
Protocol: Conductance measurements were carried out at room temperature by use of a Thermo conductivity meter, model Orion 150+. Routinely, the titrations were performed by adding a controlled amount of 10% of stock surfactant solution under magnetic stirring into the 0.5% BSA (Bovine Serum Albumin) in 0.02M acetate buffer at pH˜5.2. Values of CMC (critical micellization concentration), CAC (critical aggregation concentration) and protein saturation point (PSP) were defined by the changing of the slope of the conductivity vs. surfactant concentration plots. The number of surfactants binding to each protein can be calculated by: {[PSP]−[CAC]}/{[protein]/Mwprotein}, where [protein] is the protein concentration.
In order to show the effect of benefit agent having different polarity on binding to protein molecule (a reflection of the harshness of surfactant; more surfactant binding to protein equal harsher and more damage expected), applicants tested surfactant binding of (1) surfactant alone and (2) of surfactant in combination with various oils/cosolvents (at 1:1 surfactant to oil ratio) to see level of (how many) surfactants binding per protein molecule (e.g., BSA) at saturation. The tests were done using conductivity test described in protocol and results are set forth below in Table 1.
Applicants conducted same test as in Examples 1 to 10, but used SLES/CAPB surfactant system instead of SDS.

Sequence of BSA (Bovine Serum Albumin) (P02769 25-607): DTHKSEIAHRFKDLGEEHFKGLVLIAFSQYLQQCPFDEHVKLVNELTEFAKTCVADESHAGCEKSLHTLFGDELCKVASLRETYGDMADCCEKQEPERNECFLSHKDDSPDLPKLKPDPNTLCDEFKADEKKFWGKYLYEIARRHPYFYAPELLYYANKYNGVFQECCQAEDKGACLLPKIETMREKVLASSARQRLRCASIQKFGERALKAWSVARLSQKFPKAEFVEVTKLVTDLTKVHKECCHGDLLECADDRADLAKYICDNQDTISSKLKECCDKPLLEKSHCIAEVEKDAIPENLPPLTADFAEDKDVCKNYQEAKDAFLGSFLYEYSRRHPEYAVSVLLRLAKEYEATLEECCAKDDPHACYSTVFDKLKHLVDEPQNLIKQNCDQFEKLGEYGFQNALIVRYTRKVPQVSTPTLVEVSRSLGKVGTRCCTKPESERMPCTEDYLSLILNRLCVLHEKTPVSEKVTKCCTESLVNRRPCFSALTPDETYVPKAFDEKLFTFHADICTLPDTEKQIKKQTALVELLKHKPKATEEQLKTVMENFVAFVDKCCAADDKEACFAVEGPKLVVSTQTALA
Sequence of BSA protein (P02769 25-607): as above

Structure (SMILES): CCCCCCCCCCCCOS(=O)(=O)[O-].[Na+] [10% SDS (surfactant alone), Sodium dodecyl sulfate]
- ratio surfactant to protein at which BSA protein is fully denatured at room temperature [1]: about 1.2
- Saturated binding: No. of surfactant per BSA at saturation [2]: 220
